Results as given in patent publication US20130157258A1, “HCV NS5B PROTEASE MUTANTS” (VERTEX PHARMACEUTICALS INCORPORATED, priority 2010, published 2013).
“Also recorded” adds a separate entry of the source.

Key:
[1] = system: HCV NS5B variants (L419C/M/P/S/V, R422K, M423I/T/V, I482L/N/T, A486I/V, V494A); experiment: Phenotypic analysis of substitutions selected in patients during dosing, replicon system; type: cell-based
Experimental: (§1) Treatment-naïve HCV genotype 1 patients (n=32) were randomized to receive VX-222 at doses of 250 mg BID, 500 mg BID, 750 mg BID, or 1500 mg QD for 3 days, in a treatment:placebo ratio of 6:2 (8 patients/cohort). Pegylated interferon (Peg-IFN) and ribavirin (RBV) for 48 weeks was offered to patients at the end of the study. Sequencing of NS5B was performed at baseline (Day 1), end of dosing (Day 3), and at follow-up timepoints (Days 4, 5, 10, 20, and 60). Phenotypic data (fold change in IC50 from wildtype) of substitutions selected in patients during dosing was determined using a replicon system.

[2] = system: recombinant mutant replicons (L419M, M423V, M423T, M423I, I482L, A486V, V494A); experiment: HCV replicon cell assay, real-time PCR, all seven recombinant mutant replicons; type: cell-based, HCV genotype 1b
Description: (§2) All mutations were introduced into the pFKI389/NS3-3′/adapt vector (Krieger et al., J. Virol., 75, 4614-4624 (2001); Lohmann et al., J. Virol., 77, 3007-3019 (2003)) by PCR-based site-directed mutagenesis and standard recombinant DNA technologies. The pFKI389/NS3-3′/adapt vector is a “cell culture adapted HCV replicon” containing a R465G mutation within the NS5B gene, and was obtained from Reblikon GmbH, Gau-Odernheim, Germany. The “cell culture adapted replicon” was chosen instead of the wild-type replicon because the R465G mutation was found in all of the progeny RNA isolated from 9.13 replicon cells used in drug susceptibility studies to compare the fold shift in IC50s (described further below). The adaptive R465G mutation in the NS5B region was previously reported (Krieger et al., supra) and found to be very efficient in generating replicon cell colonies after RNA transfection into Huh-7 cells. […]
(§3) The 9.13 replicon cells and the stable recombinant replicon cells were seeded in a 12-well culture dish at a density of 3×10^4 cells/well in a volume of 1 mL. […] The inhibitory effect of agents against wild-type replicon cells, resistant colonies, or recombinant replicon cells was determined by monitoring the levels of HCV RNA, normalized to cellular 18S ribosomal RNA, by real time PCR using the ABI PRISM® 7700 Sequence Detection System (Applied Biosystems, Foster City, Calif., USA). […]

M423T HCV replicon = experiment: HCV replicon cell assay, real-time PCR, M423T; type: cell-based, HCV genotype 1b
Description: as §2, §3

[3] = system: HCV NS5B substitution at position 486 (A486I/V); experiment: Phenotypic analysis in replicon system, substitution at position 486; type: cell-based
Experimental: as §1

L419S HCV replicon = experiment: HCV replicon cell assay, real-time PCR, L419S resistant colony; type: cell-based; details: Hepatitis C virus, 96 h
Experimental: The 9.13 replicon cells and the stable recombinant replicon cells were seeded in a 12-well culture dish at a density of 3×10^4 cells/well in a volume of 1 mL. The cell culture media used for the assay was DMEM supplemented with 10% fetal bovine serum, 100 IU/mL of penicillin, 100 μg/mL streptomycin, non-essential amino acids, 2 mM glutamine and 10 mM HEPES. After incubating for 3-4 hours, candidate agents (drugs) were added at various concentrations for a final volume of 2 mL of the same culture media. Cells were incubated for 4 days at 37° C. with 5% CO2. Thereafter, total RNA (cellular and viral origin) was extracted using the RNeasy kit (Qiagen Inc.) according to the manufacturer's protocol. cDNA synthesis was performed using the MMLV reverse transcriptase and random hexamer primer (Invitrogen). The inhibitory effect of agents against wild-type replicon cells, resistant colonies, or recombinant replicon cells was determined by monitoring the levels of HCV RNA, normalized to cellular 18S ribosomal RNA, by real time PCR using the ABI PRISM® 7700 Sequence Detection System (Applied Biosystems, Foster City, Calif., USA). […]
(§4) Media and drugs were replaced twice a week over the course of the experiment. Three to four weeks following the initial plating, resistant clones of cells (colonies) were counted and randomly picked for culture or for direct RNA extraction. […]

M423V HCV replicon = experiment: HCV replicon cell assay, real-time PCR, M423V; type: cell-based, HCV genotype 1b
Description: as §2, §3

L419M HCV replicon = experiment: HCV replicon cell assay, real-time PCR, L419M; type: cell-based, HCV genotype 1b
Description: as §2, §3

[4] = system: HCV NS5B substitution at position 422 (R422K); experiment: Phenotypic analysis in replicon system, substitution at position 422; type: cell-based
Experimental: as §1

V494A HCV replicon = experiment: HCV replicon cell assay, real-time PCR, V494A; type: cell-based, HCV genotype 1b
Description: as §2, §3

HCV genotype 1 = experiment: Phase Ib/IIa multicenter, randomized, dose-ascending study, 3 days of dosing; type: in vivo, human
Experimental: VX-222 is a non-nucleoside hepatitis C virus (HCV) NS5B polymerase inhibitor with potent in vitro activity. Safety, antiviral activity, and viral sequences were assessed in a phase Ib/IIa multicenter, randomized, dose-ascending study in genotype 1, HCV-infected patients.
as §1

I482L HCV replicon = experiment: HCV replicon cell assay, real-time PCR, I482L; type: cell-based, HCV genotype 1b
Description: as §2, §3

[5] = system: genotype 1b replicon cells (9.13 replicon cells); experiment: Selection of drug-resistant HCV replicon colonies under G418; type: cell-based, HCV genotype 1b
Description: Drug-resistant HCV replicons were selected as previously described. (See, e.g., Amparo et al., 46th Conference on Antimicrobial Agents and Chemotherapy (ICAAC). 2006, Abstract 1273; Le Pogam et al., J. Virol., 80(12), 6146-54 (2006); Lin et al., J. Biol. Chem., 279(17), 17508-17514 (2004); Lu et al., Antimicrob. Agents Chemother., 48(6), 2260-2266 (2004); Trozzi et al., J. Virol., 77, 3669-3679 (2003)). Briefly, approximately 2.5×10^4 genotype 1a replicon cells (W11.8 replicon cells at passage 13) or genotype 1b replicon cells (9.13 replicon cells at passage greater than 100) were plated in 75 cm^2 cell culture flasks (Falcon 353136) in complete culture medium with high concentration of G418 (600 μg/mL). […]
as §4
Mutant replicons resistant to specific inhibitors were made using replicon constructs expressing the neomycin phosphotransferase gene (NPT). […] Cells containing mutant replicons with decreased sensitivity to an inhibitor give rise to colonies that can be counted, isolated, expanded and characterized.

M423I HCV replicon = experiment: HCV replicon cell assay, real-time PCR, M423I; type: cell-based, HCV genotype 1b
Description: as §2, §3

[6] = system: HCV NS5B substitution at position 423 (M423I/T/V); experiment: Phenotypic analysis in replicon system, substitution at position 423; type: cell-based
Experimental: as §1

[7] = system: HCV NS5B substitution at position 482 (I482L/N/T); experiment: Phenotypic analysis in replicon system, substitution at position 482; type: cell-based
Experimental: as §1

[8] = system: HCV NS5B substitution at position 494 (V494A); experiment: Phenotypic analysis in replicon system, substitution at position 494; type: cell-based
Experimental: as §1

A486V HCV replicon = experiment: HCV replicon cell assay, real-time PCR, A486V; type: cell-based, HCV genotype 1b
Description: as §2, §3

[9] = system: HCV NS5B substitution at position 419 (L419C/M/P/S/V); experiment: Phenotypic analysis in replicon system, substitution at position 419; type: cell-based
Experimental: as §1

[10] = Hepatitis C virus, 96 h, 4 days, HCV RNA by real time PCR
[11] = 250-750 mg BID or 1500 mg QD for 3 days, patients

NC(=O)c1ncn([C@@H]2O[C@H](CO)[C@@H](O)[C@H]2O)n1 [RBV, ribavirin]
sensitivity of VX-222-selected variants to the agent ([1]; in vitro): did not have reduced sensitivity; also recorded: remained sensitive

CC1CCC(C(=O)N(c2cc(C#CC(C)(C)C)sc2C(=O)O)C2CCC(O)CC2)CC1 (stereo not drawn) [VX-222]
fold increase of IC50 vs wild-type replicon cells [2]: 6- to 80 fold | IC50 Fold-Change vs Wild-Type Replicon (M423T HCV replicon): 29 fold and ≈29 fold | IC50 (M423T HCV replicon; [10]): 319 nM | fold change in IC50 from wildtype [3]: ~50 fold | IC50 (L419S HCV replicon): > 2000 nM | IC50 Fold-Change vs Wild-Type Replicon (M423V HCV replicon): 10 fold and ≈10 fold | IC50 (M423V HCV replicon; [10]): 110 nM | IC50 Fold-Change vs Wild-Type Replicon (L419M HCV replicon): 80 fold and ≈80 fold | IC50 (L419M HCV replicon; [10]): 900 nM | fold change in IC50 from wildtype [4]: ~74 fold | IC50 Fold-Change vs Wild-Type Replicon (V494A HCV replicon): ≈5.9 fold | IC50 (V494A HCV replicon; [10]): 132 nM | mean HCV RNA decline (HCV genotype 1; 250 mg (BID), after three days of dosing, treatment-naive genotype 1 patients): 3.1 log 10 | mean HCV RNA decline (HCV genotype 1; 500 mg (BID), after three days of dosing, treatment-naive genotype 1 patients): 3.4 log 10 | mean HCV RNA decline (HCV genotype 1; 750 mg (BID), after three days of dosing, treatment-naive genotype 1 patients): 3.2 log 10 | mean HCV RNA decline (HCV genotype 1; 1500 mg (QD), after three days of dosing, treatment-naive genotype 1 patients): 3.4 log 10 | most common reported adverse effects (AEs) (HCV genotype 1; [11]): diarrhea, headache, nausea, fatigue and fever | severity of the majority of AEs (HCV genotype 1; [11]): mild in severity | mean HCV RNA decline (HCV genotype 1; all four dose groups): greater than 3 log 10 | IC50 Fold-Change vs Wild-Type Replicon (I482L HCV replicon): ≈26 fold | IC50 (I482L HCV replicon; [10]): 290 nM | resistant colony formation ([5]; VX-222 concentration of about 300 fold of the IC50, G418 selection): No colony could be readily detected | frequency of resistant clones ([5]; equivalent IC50-fold concentration of VX-222, genotype 1b vs genotype 1a replicon cell line, not side by side): higher for the genotype 1b replicon cell line than for the genotype 1a replicon cell line | IC50 Fold-Change vs Wild-Type Replicon (M423I HCV replicon): 7.1 fold and ≈7.1 fold | IC50 (M423I HCV replicon; [10]): 77.2 nM | fold change in IC50 from wildtype [6]: seven to ten | fold change in IC50 from wildtype ([1]; range over all variants selected in patients): 6-80 fold | fold change in IC50 from wildtype [7]: ~26 fold | fold change in IC50 from wildtype [8]: six | IC50 Fold-Change vs Wild-Type Replicon (A486V HCV replicon): 50 fold and ≈50 fold | IC50 (A486V HCV replicon; [10]): 843 nM | fold change in IC50 from wildtype [9]: 20-80 fold
